Experimental data as given in ChEMBL document CHEMBL5465560, “Selectivity Literature for EUbOPEN Chemogenomic Library” (2024).

Key:
[1] = target: Protein arginine N-methyltransferase 3 (Homo sapiens, UniProt O60678); assay: Selectivity interaction (Scintillation proximity assays) EUB0000230b PRMT3
[2] = target: T1, NUAK family SNF1-like kinase 1 (Homo sapiens) (UniProt O60285); assay: Selectivity interaction (Kinase panel (Carna Biosciences)) EUB0001542aTs NUAK1; conditions: at 1 µM
T1 sequence (whole entry): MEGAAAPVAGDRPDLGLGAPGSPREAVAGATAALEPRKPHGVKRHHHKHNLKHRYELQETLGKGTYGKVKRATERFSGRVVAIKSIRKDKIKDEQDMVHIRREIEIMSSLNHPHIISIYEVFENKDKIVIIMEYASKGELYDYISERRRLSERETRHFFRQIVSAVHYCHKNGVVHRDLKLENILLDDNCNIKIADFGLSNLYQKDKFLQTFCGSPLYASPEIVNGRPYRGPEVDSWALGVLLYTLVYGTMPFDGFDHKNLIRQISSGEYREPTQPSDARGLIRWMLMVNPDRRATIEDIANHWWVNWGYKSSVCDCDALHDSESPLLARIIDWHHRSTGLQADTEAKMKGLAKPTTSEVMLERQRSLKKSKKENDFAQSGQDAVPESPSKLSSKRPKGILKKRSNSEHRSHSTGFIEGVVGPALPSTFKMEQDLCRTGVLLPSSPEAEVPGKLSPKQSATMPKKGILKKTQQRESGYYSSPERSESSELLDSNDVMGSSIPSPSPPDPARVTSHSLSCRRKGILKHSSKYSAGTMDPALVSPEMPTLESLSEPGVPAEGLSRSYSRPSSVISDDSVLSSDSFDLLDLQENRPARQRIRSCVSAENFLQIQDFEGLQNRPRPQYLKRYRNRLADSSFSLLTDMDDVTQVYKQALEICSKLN

[3] = target: Proto-oncogene tyrosine-protein kinase Src (Homo sapiens, UniProt P12931); assay: Selectivity interaction (Kinase panel (Z-LYTE Assay)) EUB0001632a SRC; conditions: at 10 µM
Sequence of Proto-oncogene tyrosine-protein kinase Src (P12931 2-536 limits assumed): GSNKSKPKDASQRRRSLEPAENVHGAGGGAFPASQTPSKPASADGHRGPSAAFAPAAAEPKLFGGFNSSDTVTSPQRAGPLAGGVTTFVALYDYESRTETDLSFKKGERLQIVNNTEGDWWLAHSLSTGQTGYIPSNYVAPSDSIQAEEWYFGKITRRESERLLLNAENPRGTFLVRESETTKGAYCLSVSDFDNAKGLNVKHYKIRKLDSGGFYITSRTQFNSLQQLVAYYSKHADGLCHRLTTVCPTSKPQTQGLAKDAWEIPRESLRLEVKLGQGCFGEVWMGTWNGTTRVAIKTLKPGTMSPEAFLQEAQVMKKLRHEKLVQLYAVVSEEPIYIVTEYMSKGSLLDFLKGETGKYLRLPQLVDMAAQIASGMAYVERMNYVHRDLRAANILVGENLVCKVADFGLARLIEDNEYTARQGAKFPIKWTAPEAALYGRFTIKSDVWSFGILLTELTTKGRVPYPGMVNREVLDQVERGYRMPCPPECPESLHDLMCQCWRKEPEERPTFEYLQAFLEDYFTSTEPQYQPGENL

[4] = target: T2, Serine/threonine-protein kinase MAK (Homo sapiens) (UniProt P20794); assay: Selectivity interaction (KinomeScan (DiscoverX)) EUB0000695a MAK; conditions: at 100 nM
T2 sequence (whole entry): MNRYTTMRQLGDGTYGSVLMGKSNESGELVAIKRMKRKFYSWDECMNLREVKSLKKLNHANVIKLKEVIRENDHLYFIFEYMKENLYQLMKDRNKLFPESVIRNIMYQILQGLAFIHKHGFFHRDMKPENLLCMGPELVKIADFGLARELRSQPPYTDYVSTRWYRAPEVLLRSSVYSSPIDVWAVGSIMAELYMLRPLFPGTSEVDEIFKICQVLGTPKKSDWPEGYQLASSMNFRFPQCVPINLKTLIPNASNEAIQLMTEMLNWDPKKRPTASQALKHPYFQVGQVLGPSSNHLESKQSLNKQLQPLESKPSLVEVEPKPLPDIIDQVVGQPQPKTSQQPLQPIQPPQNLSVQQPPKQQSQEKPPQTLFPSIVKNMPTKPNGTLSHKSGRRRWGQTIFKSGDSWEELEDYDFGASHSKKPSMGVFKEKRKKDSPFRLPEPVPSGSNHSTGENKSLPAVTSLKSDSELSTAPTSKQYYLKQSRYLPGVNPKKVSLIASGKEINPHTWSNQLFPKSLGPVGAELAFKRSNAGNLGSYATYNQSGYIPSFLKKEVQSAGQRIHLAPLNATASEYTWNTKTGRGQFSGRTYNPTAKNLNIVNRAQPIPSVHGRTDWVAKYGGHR

[5] = target: Protein arginine N-methyltransferase 6 (Homo sapiens, UniProt Q96LA8); assay: Selectivity interaction (Methyltransferase screen (radiometric assays, panel of 8 PRMTs, 21 protein lysine methyltransferases, 3 DNA methyltransferases, and one RNA methyltransferase)) EUB0000272b PRMT6
Sequence of Protein arginine N-methyltransferase 6 (Q96LA8 whole entry, looked up): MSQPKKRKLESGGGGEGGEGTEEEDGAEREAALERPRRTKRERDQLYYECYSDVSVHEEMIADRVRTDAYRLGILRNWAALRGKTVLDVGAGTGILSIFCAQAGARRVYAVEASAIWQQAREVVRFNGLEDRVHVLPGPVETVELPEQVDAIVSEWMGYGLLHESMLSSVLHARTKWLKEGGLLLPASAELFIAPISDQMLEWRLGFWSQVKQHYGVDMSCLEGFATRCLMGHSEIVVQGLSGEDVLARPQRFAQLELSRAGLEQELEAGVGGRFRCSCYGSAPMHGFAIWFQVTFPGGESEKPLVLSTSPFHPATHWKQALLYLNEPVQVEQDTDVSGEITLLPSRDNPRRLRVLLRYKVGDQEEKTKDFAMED

Activated CDC42 kinase 1 = Activated CDC42 kinase 1 (Homo sapiens, UniProt Q07912); assay: Selectivity interaction (KinomeScan (DiscoverX)) EUB0001079a TNK2; conditions: at 1 µM
Sequence of Activated CDC42 kinase 1 (Q07912 whole entry, looked up): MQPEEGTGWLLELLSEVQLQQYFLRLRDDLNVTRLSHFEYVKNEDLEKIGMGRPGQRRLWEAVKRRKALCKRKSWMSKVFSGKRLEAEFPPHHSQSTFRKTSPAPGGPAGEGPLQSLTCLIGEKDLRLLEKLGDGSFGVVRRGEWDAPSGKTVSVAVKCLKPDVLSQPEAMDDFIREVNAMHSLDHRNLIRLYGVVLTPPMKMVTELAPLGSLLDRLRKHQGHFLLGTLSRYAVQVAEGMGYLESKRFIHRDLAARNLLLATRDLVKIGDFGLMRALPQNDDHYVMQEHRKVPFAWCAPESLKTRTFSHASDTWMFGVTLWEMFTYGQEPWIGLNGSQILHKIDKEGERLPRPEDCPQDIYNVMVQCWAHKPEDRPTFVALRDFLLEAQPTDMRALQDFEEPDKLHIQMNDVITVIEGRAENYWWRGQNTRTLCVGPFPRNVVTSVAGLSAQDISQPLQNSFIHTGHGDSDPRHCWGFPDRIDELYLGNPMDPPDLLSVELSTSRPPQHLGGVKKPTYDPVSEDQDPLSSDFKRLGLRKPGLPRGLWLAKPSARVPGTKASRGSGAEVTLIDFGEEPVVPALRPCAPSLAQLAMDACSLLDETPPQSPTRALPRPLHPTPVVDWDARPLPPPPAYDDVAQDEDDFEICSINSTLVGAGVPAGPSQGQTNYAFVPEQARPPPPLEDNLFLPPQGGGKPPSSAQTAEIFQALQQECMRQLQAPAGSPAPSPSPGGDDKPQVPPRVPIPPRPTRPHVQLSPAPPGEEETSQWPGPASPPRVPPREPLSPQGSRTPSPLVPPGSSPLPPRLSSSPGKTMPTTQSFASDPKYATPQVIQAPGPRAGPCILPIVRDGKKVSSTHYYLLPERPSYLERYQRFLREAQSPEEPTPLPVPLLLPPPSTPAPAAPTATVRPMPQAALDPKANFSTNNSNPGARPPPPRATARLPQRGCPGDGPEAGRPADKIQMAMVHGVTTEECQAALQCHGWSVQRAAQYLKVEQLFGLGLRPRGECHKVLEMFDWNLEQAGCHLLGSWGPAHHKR

[6] = target: Serine/threonine-protein kinase WNK1 (Homo sapiens) (UniProt Q9H4A3); assay: Selectivity interaction (ProQinase) EUB0000171b WNK1
Sequence of Serine/threonine-protein kinase WNK1 (Homo sapiens) (Q9H4A3 whole entry, looked up): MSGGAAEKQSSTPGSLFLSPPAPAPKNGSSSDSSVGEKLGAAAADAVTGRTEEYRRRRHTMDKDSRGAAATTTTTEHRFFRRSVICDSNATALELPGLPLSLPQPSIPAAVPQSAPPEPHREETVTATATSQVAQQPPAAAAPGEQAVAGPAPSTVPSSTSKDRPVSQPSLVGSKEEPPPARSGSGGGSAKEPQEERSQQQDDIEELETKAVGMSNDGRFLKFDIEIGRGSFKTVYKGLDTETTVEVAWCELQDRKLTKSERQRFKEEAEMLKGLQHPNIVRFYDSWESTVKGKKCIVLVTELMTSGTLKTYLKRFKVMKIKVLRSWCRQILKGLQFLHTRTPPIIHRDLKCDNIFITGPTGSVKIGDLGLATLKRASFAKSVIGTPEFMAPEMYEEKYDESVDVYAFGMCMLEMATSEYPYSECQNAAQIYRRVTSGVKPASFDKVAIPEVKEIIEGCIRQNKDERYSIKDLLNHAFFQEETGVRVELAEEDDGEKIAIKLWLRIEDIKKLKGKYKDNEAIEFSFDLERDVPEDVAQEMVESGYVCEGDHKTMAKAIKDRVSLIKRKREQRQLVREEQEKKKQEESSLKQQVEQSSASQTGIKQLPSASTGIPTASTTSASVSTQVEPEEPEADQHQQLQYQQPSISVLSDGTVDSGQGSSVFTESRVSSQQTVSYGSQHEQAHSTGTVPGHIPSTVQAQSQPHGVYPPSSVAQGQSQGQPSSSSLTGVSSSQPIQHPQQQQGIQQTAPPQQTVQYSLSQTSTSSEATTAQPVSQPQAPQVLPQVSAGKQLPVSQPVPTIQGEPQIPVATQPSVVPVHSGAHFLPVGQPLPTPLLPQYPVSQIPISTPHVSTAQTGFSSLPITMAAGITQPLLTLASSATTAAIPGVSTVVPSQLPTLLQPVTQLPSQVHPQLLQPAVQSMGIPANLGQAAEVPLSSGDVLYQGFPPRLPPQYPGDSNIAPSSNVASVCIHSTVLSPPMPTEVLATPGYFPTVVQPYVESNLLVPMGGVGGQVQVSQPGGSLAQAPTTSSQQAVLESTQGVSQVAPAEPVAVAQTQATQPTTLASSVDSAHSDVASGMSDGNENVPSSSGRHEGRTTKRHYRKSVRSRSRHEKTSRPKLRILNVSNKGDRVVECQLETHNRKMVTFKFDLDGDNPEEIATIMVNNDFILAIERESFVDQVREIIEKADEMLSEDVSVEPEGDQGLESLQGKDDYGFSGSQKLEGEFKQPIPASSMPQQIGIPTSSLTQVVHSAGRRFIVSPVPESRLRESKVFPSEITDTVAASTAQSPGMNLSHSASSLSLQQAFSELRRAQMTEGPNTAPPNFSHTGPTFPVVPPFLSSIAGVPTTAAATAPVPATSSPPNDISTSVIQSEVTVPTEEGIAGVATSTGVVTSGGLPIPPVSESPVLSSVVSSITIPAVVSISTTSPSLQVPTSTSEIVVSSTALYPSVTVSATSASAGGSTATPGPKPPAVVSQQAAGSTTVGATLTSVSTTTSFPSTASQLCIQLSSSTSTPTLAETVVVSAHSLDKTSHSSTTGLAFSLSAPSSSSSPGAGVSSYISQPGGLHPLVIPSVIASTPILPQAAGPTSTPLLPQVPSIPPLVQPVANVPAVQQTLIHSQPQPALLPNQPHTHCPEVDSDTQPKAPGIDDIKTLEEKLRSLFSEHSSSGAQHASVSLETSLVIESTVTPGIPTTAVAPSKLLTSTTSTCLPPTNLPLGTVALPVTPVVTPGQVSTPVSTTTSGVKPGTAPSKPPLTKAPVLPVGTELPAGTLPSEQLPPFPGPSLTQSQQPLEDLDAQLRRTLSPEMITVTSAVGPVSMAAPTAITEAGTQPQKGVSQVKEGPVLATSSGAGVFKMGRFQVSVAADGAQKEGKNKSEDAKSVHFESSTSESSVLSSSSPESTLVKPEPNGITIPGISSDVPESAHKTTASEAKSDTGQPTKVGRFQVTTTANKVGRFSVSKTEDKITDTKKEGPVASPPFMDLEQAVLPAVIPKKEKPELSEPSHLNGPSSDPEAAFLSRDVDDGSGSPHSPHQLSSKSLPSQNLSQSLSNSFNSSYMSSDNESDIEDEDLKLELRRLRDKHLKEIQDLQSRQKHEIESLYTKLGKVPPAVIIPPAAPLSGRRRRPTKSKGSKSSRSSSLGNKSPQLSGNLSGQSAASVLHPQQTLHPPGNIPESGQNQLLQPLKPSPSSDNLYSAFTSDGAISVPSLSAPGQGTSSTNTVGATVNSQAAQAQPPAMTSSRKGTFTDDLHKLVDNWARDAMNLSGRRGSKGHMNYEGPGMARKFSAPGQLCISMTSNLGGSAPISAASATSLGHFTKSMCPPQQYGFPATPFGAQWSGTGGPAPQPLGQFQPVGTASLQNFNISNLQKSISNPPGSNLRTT

[7] = target: T3, Serine/threonine-protein kinase BRSK2 (Homo sapiens) (UniProt Q8IWQ3); assay: Selectivity interaction (Upstate Kinase Profiler service (Millipore)) EUB0000056c BRSK2; conditions: at 1 µM
T3 sequence (whole entry): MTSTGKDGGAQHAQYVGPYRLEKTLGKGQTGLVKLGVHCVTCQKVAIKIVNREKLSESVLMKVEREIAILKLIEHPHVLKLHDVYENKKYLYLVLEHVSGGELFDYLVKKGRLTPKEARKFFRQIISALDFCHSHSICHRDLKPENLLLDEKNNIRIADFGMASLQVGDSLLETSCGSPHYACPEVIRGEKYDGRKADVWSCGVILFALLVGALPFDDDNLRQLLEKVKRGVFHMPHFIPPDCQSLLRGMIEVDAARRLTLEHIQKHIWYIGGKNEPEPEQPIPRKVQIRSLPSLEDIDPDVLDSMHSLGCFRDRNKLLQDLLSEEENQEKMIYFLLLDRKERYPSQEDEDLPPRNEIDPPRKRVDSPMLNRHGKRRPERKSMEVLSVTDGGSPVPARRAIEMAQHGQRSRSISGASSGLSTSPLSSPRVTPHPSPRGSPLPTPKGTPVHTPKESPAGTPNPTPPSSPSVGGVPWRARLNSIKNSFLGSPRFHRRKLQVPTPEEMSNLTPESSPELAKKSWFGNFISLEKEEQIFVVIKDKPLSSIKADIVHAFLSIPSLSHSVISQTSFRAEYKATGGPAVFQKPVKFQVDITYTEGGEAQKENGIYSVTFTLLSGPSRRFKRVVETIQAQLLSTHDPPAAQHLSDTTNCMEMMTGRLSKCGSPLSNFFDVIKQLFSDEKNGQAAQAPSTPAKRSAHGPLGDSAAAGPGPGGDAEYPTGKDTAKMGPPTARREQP

Sequence of Protein arginine N-methyltransferase 3 (O60678 whole entry): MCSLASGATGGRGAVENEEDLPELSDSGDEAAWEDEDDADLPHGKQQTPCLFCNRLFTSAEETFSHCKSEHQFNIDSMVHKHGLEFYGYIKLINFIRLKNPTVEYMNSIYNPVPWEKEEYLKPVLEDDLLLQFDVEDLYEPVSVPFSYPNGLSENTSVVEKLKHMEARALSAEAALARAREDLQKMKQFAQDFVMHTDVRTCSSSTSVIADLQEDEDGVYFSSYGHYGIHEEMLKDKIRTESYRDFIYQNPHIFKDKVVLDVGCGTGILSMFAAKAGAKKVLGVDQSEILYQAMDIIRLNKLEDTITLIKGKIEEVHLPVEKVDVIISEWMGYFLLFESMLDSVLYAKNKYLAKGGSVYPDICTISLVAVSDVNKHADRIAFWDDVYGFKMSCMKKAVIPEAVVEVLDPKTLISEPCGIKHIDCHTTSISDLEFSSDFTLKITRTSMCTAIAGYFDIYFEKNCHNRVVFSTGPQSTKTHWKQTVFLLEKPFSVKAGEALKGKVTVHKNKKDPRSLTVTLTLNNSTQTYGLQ

**Q.** `CNCCN1CCC(c2cc(CN(C)C(=O)c3cccc(Oc4ccccc4)c3)ccn2)CC1` was tested. Which IC50 [1] did it give?
**A.** > 10 µM

**Q.** For `Cn1cc(Nc2nccc(N3CC4CCC(C3)N4C(=O)[C@@H]3CC3(F)F)n2)cn1`, which % of inhibition [2] is on record?
**A.** 60%

**Q.** How did the % of control [3] turn out when `Cn1cc(-n2cnc3c(NCc4nc5cc(Cl)c(Cl)cc5[nH]4)nc(N4CCOCC4)nc32)cn1` was run?
**A.** 6.05%

**Q.** `Cc1cc(F)c(C(=O)Nc2cccc(-c3nncn3C(C)C)n2)cc1-n1cnc(C2CC2)c1` was tested. Which % of control [4] did it give?
**A.** 100%

**Q.** Which results are given for `Cc1cc(C)cc([C@H]2c3cc(C)ccc3NC(=O)CN2C(=O)c2ccc(Br)s2)c1`?
**A.** % of activity ([5]; at 1 µM): 92.3%; % of activity ([5]; at 10 µM): 92.7%

**Q.** How did the % of control (Activated CDC42 kinase 1) turn out when `Nc1cnc(N2CCc3cc(S(=O)(=O)Nc4c(F)cc(Cl)cc4F)cc(N4CCCC4=O)c32)nc1` [TP-020n] was run?
**A.** 91%

**Q.** Which % of control ([6]; at 1 µM) does the source give for `C=CC(=O)Nc1cccc(C(=O)Nc2ccc(Nc3cc(-c4[nH]c(SC)nc4C)ccn3)cc2)c1` here?
**A.** 95%

**Q.** And the % of control ([6]; at 5 µM)?
**A.** 81%

**Q.** With `Cc1ccc(-c2ccc3c(ccc4sc5c(c43)NC[C@@H](C)NC5=O)n2)cn1` as the compound, how does the % of inhibition [7] read?
**A.** 93%
